These results are taken from patent publication US6624182B1, “Hydroxyphenylvinylthiazoles” (Ciba Specialty Chemicals Corporation, priority 1999, dated 2003).

Some results are limits rather than exact numbers.

Holding throughout (experiment): Determination of the minimum inhibitory concentration (MIC value) in microtitre plates
Assay [1] relates to E. coli. The class given is cell-based, Escherichia coli NCTC 8196. To be noted: Escherichia coli; optical density at 620 nm, 48 hours at 37° C., MIC = ≦20% growth; tested at 100; 10 and 1 ppm (approximate values); (2), (3), (4) at 120; 60; 30; 15; 7.5; 3.75 ppm. The procedure, abridged:
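E. coli NCTC 8196 grown overnight in CASO bouillon, adjusted to 1−5×10^6 KBE/ml, diluted 1:100 and added to DMSO-dissolved compounds in 1:2 dilution series. Incubated 48 h at 37° C; growth read as OD 620 nm. MIC is the lowest concentration giving ≤20% growth versus growth control; duplicates.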

The test system of assay [2] is C. albicans. The class given is cell-based, Candida albicans ATCC 10231. Conditions: Candida albicans; optical density at 620 nm, 48 hours at 37° C., MIC = ≦20% growth; tested at 100; 10 and 1 ppm (approximate values); (2), (3), (4) at 120; 60; 30; 15; 7.5; 3.75 ppm. The procedure, abridged: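 Candida albicans ATCC 10231 grown overnight in CASO broth, adjusted to 1–5×10^6 CFU/ml then diluted 1:100, was exposed to 1:2 serial dilutions of compound (DMSO) for 48 h at 37 °C. Growth was read as OD620; MIC was the concentration giving ≤20% growth versus control, tested in duplicate.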

For assay [3], the system named is S. aureus. In kind it is cell-based. Conditions: Staphylococcus aureus; optical density at 620 nm, 48 hours at 37° C., MIC = ≦20% growth; tested at 100; 10 and 1 ppm (approximate values); (2), (3), (4) at 120; 60; 30; 15; 7.5; 3.75 ppm. The procedure, abridged: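 DMSO-dissolved compounds were tested in 1:2 serial dilutions against bacteria in CASO bouillon, from inocula of 1−5×10^6 KBE/ml diluted 1:100. Growth was read by OD 620 nm after 48 h at 37 °C. MIC was the lowest concentration giving ≦20% growth versus the growth control, tested in duplicate.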

Usually MIC stands for the lowest concentration that inhibits growth of the organism. Read a high MIC as weaker potency. On to `Oc1ccc(/C=C/c2nc(-c3ccccc3)cs2)cc1` [Compound of formula (4)], for which the minimal inhibitory concentration (MIC) is over 100 µg/mL in assay [1], 30 µg/mL in assay [2] and over 100 µg/mL in assay [3].
For the molecule `CC(C)(C)c1csc(/C=C/c2ccccc2O)n1` [Compound of formula (3)], the MIC was over 100 µg/mL in assay [1], over 100 µg/mL in assay [2] and 60 µg/mL in assay [3].
Turning to `Oc1ccc(/C=C/c2nc(-c3ccc(F)cc3)cs2)cc1` [Compound of formula (2)], the MIC in assay [1] was over 100 µg/mL; in assay [2], 30 µg/mL; in assay [3], over 100 µg/mL.
